Data on two compounds can be found in patent US11352350B2, “IRAK degraders and uses thereof” (Kymera Therapeutics, Inc., priority 2018, dated 2022).

What all share (type): cell-based
One test has as its system OCI-LY10. Put plainly: OCI-LY10 viability, CTG. Particulars: for IC50: Homo sapiens, OCI-Ly10.
For test [1], the target named is T1, IRAK4 (Homo sapiens (Human), UniProt Q9NWZ3). Put plainly: IRAK4 MSD degradation in OCI-LY10. The following applies: for DC50: OCI-LY10, 4 hrs, MSD, read-out: IRAK4 MSD degradation in OCI-LY10 at 4 hrs: Average external-Abs DC50. The method, boiled down: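 Remaining IRAK4 quantified by electrochemiluminescent MSD sandwich assay with two anti-IRAK4 antibodies. Compounds were dosed as 8 concentrations in 1:3 steps from a 1 to 10 μM final top on OCI-LY10 cells, incubated 4 to 24 h at 37° C. under 5% CO2. DC50 fitted with a three-parameter logistic curve.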
T1 sequence (Q9NWZ3 whole entry): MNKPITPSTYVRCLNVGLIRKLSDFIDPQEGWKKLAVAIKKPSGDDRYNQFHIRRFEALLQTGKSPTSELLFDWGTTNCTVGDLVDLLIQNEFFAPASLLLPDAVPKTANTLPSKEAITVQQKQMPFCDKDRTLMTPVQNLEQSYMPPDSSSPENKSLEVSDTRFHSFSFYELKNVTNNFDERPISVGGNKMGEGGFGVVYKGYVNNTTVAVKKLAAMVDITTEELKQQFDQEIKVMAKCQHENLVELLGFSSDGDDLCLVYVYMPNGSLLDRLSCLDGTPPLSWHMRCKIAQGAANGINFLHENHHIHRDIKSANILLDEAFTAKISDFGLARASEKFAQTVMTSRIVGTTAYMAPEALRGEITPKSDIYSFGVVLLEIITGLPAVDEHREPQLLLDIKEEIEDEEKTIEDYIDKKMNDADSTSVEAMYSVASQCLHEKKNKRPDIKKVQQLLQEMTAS

Test [2] deals with T1, IRAK4. In words: IRAK4 degradation in human whole blood monocyte - flow cytometry. Particulars: read-out: IRAK4 degradation in whole blood monocyte-Flow cytometry: Average external Abs IC50. The method, boiled down: (§1)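 Fresh heparinized human whole blood dosed (10-point, 5-fold, 0.1% DMSO) for 20 h or 4 h at 37 °C, then fixed, stained and IRAK4 MFI quantified by flow in CD14+ monocytes and CD14− lymphocytes. DC50 and Dmax via 4-parameter logistic fit normalized to DMSO and 10 μM control.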

Test [3] concerns the target T1, IRAK4. Put plainly: IRAK4 degradation in human whole blood lymphocyte - flow cytometry. The following applies: read-out: IRAK4 degradation in whole blood lymphocyte-Flow cytometry: Average external Abs IC50. The essentials: as §1
(In general: Flow cytometry measures light scatter and fluorescence of single cells or particles in a stream.)

A further test concerns TNFα. Put plainly: Human whole blood LPS TNFα assay. Particulars: 20 h pretreatment, LPS 5 h, read-out: IRAK4 human whole blood LPS TNFa inhibition: Average external-IC50. The method, boiled down: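 Fresh human whole blood pretreated 20 h at 37 °C with compound (8-point, 5-fold dilution from 2 μM start), then stimulated with 100 ng/ml LPS (final) for 5 h. Plasma TNFα quantified by MSD V-plex, normalised to stimulated and unstimulated controls; IC50 from 4-parameter logistic fit.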

Where two headings read alike, the source gives them in different places. A value given as a limit tells only on which side of the number the result lay.

For `CN(CCCOCCCc1cccc2c1n(C)c(=O)n2C1CCC(=O)NC1=O)C[C@H]1CC[C@H](n2cc(NC(=O)c3coc(-c4ccnc(NCC5CC5)c4)n3)c(C(F)F)n2)CC1` (mixture of isomers) [I-30, 2-[2-(Cyclopropylmethylamino)-4-pyridyl]-N-[3-(difluoromethyl)-1-[4-[[3-[3-[1-(2,6-dioxo-3-piperidyl)-3-methyl-2-oxo-benzimidazol-4-yl]propoxy]propyl-methyl-amino]methyl]cyclohexyl]pyrazol-4-yl] oxazole-4-carboxamide], the “Cell Titer Glo assay, combination effect” value with OCI-LY10 (combination of ibrutinib and degrader I-30 (FIG. 12B)) is recorded as “synergism”. Also, the DC50 on IRAK4 [1] was less than 10 nM; on IRAK4 [3] it was less than 50 nM. Besides, at IRAK4 [1] (OCI-LY10 and TMD8, FIGS. 1-3 and 10), the “depletion of IRAK4 in MYD88 mutant lymphoma cell lines” value was “potent depletion of IRAK4”. Also, the figures for the IC50 on IRAK4 [2] and with TNFα were less than 50 nM and 100 to 500 nM, respectively.

For the compound `CN(C[C@H]1CC[C@H](n2cc(NC(=O)c3coc(-c4ccnc(NCC5CC5)c4)n3)c(C(F)F)n2)CC1)C1CCN(Cc2cccc3c2n(C)c(=O)n3C2CCC(=O)NC2=O)CC1` (stereo partly drawn) [I-75, 2-(2-((cyclopropylmethyl)amino)pyridin-4-yl)-N-(3-(difluoromethyl)-1-((1r,4r)-4-(((1-((1-(2,6-dioxopiperidin-3-yl)-3-methyl-2-oxo-2,3-dihydro-1H-benzo[d]imidazol-4-yl)methyl)piperidin-4-yl)(methyl)amino)methyl)cyclohexyl)-1H-pyrazol-4-yl)oxazole-4-carboxamide], the IC50 (in general, the concentration needed to halve the response being measured) in the test with OCI-LY10 (MYD88 MUT, read-out: OCI-LY10 CTG IC50) is 11 nM; in the test with OCI-LY10 (MYD88 Mutant Lines, read-out: OCI-LY10 Viability, CTG IC50), 11 nM; with TNFα, more than 1000 nM. The DC50 was less than 10 nM on IRAK4 [1], 50 to 100 nM at IRAK4 [2] and 50 to 100 nM at IRAK4 [3].
